This is an account of results in article PMC3953731 (FEBS Open Bio, 2014).

In one series the target is T1, Ima5p (Saccharomyces cerevisiae, UniProt P40884).
T1 sequence (P40884 1-581): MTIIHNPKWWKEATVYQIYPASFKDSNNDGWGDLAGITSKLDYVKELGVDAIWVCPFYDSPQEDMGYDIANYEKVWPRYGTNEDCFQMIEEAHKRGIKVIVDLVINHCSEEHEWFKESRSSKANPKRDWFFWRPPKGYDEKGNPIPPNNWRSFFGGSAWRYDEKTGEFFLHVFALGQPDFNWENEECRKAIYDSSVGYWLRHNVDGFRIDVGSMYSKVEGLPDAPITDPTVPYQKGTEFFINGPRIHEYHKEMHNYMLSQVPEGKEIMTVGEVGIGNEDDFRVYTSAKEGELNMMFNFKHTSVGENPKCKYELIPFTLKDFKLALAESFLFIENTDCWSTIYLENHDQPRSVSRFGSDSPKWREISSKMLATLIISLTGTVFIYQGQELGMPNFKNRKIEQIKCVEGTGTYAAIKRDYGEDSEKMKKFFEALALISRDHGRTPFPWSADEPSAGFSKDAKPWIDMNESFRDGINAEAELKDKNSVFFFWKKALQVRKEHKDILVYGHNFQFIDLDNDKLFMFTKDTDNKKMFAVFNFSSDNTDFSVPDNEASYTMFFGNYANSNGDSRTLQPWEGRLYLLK
Description: Substrate specificity of purified isomaltase. The series is classed as biochemical. Particulars: 100 mM substrate (pNPG 5 mM), pH 7, 30 °C; for Specific activities: citrate–potassium phosphate buffer.

For the next series, the target named is Ima1p (Saccharomyces cerevisiae, UniProt P53051). Description: Substrate specificity of purified isomaltase. The series is classed as biochemical. The following applies: 100 mM substrate (pNPG 5 mM), pH 7, 30 °C; for Specific activities: citrate–potassium phosphate buffer.
Sequence of Ima1p (P53051 whole entry): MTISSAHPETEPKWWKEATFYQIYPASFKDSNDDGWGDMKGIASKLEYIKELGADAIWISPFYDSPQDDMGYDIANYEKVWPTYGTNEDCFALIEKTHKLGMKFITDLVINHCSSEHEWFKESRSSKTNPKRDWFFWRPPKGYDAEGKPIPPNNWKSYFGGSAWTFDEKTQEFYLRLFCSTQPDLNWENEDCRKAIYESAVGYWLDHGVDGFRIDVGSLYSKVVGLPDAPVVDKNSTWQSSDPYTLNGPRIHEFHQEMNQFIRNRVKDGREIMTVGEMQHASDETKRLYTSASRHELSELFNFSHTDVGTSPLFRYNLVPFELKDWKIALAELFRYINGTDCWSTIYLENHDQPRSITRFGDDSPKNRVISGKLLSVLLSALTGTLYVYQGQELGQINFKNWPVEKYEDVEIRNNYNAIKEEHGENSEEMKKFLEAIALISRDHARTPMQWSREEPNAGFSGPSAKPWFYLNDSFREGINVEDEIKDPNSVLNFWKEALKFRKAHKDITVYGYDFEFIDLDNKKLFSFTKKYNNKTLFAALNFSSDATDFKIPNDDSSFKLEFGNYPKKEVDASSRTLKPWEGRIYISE
The target of a further series is Ima3p (Saccharomyces cerevisiae, UniProt P0CW40). Briefly: Substrate specificity of purified isomaltase. It counts as biochemical. The following applies: 100 mM substrate (pNPG 5 mM), pH 7, 30 °C; for Specific activities: citrate–potassium phosphate buffer.
Sequence of Ima3p (P0CW40 whole entry): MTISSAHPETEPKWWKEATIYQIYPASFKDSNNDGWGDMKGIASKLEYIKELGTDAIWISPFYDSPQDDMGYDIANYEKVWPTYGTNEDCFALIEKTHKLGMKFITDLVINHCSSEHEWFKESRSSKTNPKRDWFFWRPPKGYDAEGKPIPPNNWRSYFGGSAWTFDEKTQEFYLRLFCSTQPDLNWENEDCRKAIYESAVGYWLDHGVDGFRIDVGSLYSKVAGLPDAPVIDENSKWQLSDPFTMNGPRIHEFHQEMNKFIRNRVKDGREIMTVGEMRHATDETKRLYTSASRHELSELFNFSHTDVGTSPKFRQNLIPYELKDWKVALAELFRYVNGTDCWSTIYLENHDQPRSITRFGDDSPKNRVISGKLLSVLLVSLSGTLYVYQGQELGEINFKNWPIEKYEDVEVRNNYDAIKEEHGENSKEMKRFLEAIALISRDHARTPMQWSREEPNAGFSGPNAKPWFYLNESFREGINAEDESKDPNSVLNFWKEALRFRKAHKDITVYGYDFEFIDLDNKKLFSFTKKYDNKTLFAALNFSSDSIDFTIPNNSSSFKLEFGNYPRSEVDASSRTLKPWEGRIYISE
The target of another series is Ima2p (Saccharomyces cerevisiae, UniProt Q08295). Description: Substrate specificity of purified isomaltase. Particulars: 100 mM substrate (pNPG 5 mM), pH 7, 30 °C; for Specific activities: citrate–potassium phosphate buffer. The series is classed as biochemical.
Series [1] in a line: Thermostability assay: time-dependent heat inactivation, half-life. Particulars: pNPG 5 mM, mean ± 2 SEM. It counts as biochemical, Saccharomyces cerevisiae.
The nature of series [2]: Melting temperature by differential scanning fluorimetry. It counts as physicochemical, Saccharomyces cerevisiae. The following applies: for Tm: mean ± 2 SEM; for decrease of Tm on increase by one pH unit (pH 8): pH 7 to pH 8. On the technique in general: DSF heats the sample and reads unfolding from a dye or from intrinsic fluorescence.

Values joined by “and” are separate entries in the source; they are usually repeats but may differ in a detail not shown here. Identical values can stand only once.

As to `OC[C@H]1O[C@H](O[C@@H]2[C@@H](O)[C@H](O)[C@@H](CO)O[C@@H]2O)[C@H](O)[C@@H](O)[C@@H]1O` [Kojibiose, O-α-D-Glucosyl-(1→2)-α-D-glucose], the Specific activities turned out to be 2.5 µmol/min/mg at Ima5p, 7.7 µmol/min/mg on Ima1p, 0 µmol/min/mg at Ima3p and 6.9 µmol/min/mg on Ima2p. Besides, the “relative activity, velocity on isomaltose set to 100” value (“relative activity, velocity” below) came to 4% on Ima5p, 13% at Ima1p and 13% on Ima2p.

Turning to `OC[C@H]1O[C@H](O[C@H]2[C@H](O)[C@@H](O)[C@@H](O[C@H]3[C@H](O)[C@@H](O)C(O)O[C@@H]3CO)O[C@@H]2CO)[C@H](O)[C@@H](O)[C@@H]1O` (stereo partly drawn) [Maltotriose, O-α-D-Glucosyl-(1→4)-α-D-glucosyl-(1→4)-D-glucose], the Specific activities at Ima5p turned out to be 3.4 µmol/min/mg; at Ima1p it was 3.5 µmol/min/mg; on Ima3p, 0 µmol/min/mg; at Ima2p, 3.4 µmol/min/mg. Moreover, the “relative activity, velocity” value at Ima5p is given as 5%; at Ima5p (listed as maltotriose), “approx. 5%”; on Ima1p it was 6%; at Ima1p (listed as maltotriose) it was “approx. 5%”; on Ima2p, 6%; on Ima2p (listed as maltotriose), “approx. 5%”.

As to `OC[C@H]1O[C@H](O[C@@H]2[C@@H](CO)OC(O)(CO)[C@H]2O)[C@H](O)[C@@H](O)[C@@H]1O` (stereo partly drawn) [Maltulose, O-α-D-Glucosyl-(1→4)-D-fructose], the Specific activities on Ima5p turned out to be 0.36 µmol/min/mg; on Ima1p, 0 µmol/min/mg; on Ima3p it was 0 µmol/min/mg; on Ima2p, 0.53 µmol/min/mg. Also, the “relative activity, velocity” value on Ima5p and on Ima2p was 1% in each case.

Consider `OC[C@H]1O[C@@](CO)(O[C@H]2O[C@H](CO)[C@@H](O)[C@H](O)[C@H]2O)[C@@H](O[C@H]2O[C@H](CO)[C@@H](O)[C@H](O)[C@H]2O)[C@@H]1O` [Melezitose, O-α-D-Glucosyl-(1→3)-β-D-fructosyl-(2→1)-D-glucose], for which the Specific activities at Ima5p, on Ima1p, at Ima3p and at Ima2p was 0 µmol/min/mg throughout.

Consider `OC[C@H]1O[C@H](O[C@@H]2[C@@H](O)[C@@H](O)O[C@H](CO)[C@H]2O)[C@H](O)[C@@H](O)[C@@H]1O` [Nigerose, O-α-D-Glucosyl-(1→3)-α-D-glucose], for which the Specific activities at Ima5p worked out at 4.2 µmol/min/mg; at Ima1p, 6.5 µmol/min/mg; at Ima3p it was 2.5 µmol/min/mg; on Ima2p it was 6.8 µmol/min/mg. The “relative activity, velocity” value was determined as 6% on Ima5p, 11% at Ima1p, 35% on Ima3p and 13% at Ima2p.

`OC[C@H]1O[C@H](O[C@H]2O[C@H](CO)[C@@H](O)[C@H](O)[C@H]2O)[C@H](O)[C@@H](O)[C@@H]1O` [Trehalose, O-α-D-Glucosyl-(1→1)-α-D-glucose]: the Specific activities at Ima5p, on Ima1p, at Ima3p and on Ima2p was 0 µmol/min/mg each time.

With `O=C(CO)[C@@H](O[C@H]1O[C@H](CO)[C@@H](O)[C@H](O)[C@H]1O)[C@H](O)[C@H](O)CO` [Turanose, O-α-D-Glucosyl-(1→3)-D-fructose], the Specific activities on Ima5p was 1.2 µmol/min/mg; at Ima1p it was 4.3 µmol/min/mg; at Ima3p, 1.8 µmol/min/mg; on Ima2p, 3.5 µmol/min/mg. For the same molecule, the “relative activity, velocity” value amounted to 2% at Ima5p, 7% on Ima1p, 25% at Ima3p and 6% at Ima2p.

B1: Ima1p: isomaltase from S. cerevisiae encoded by IMA1/YGR287C, His-tagged, purified (protein, UniProt P53051 2-589, looked up)
Oligo-1,6-glucosidase IMA1: TISSAHPETEPKWWKEATFYQIYPASFKDSNDDGWGDMKGIASKLEYIKELGADAIWISPFYDSPQDDMGYDIANYEKVWPTYGTNEDCFALIEKTHKLGMKFITDLVINHCSSEHEWFKESRSSKTNPKRDWFFWRPPKGYDAEGKPIPPNNWKSYFGGSAWTFDEKTQEFYLRLFCSTQPDLNWENEDCRKAIYESAVGYWLDHGVDGFRIDVGSLYSKVVGLPDAPVVDKNSTWQSSDPYTLNGPRIHEFHQEMNQFIRNRVKDGREIMTVGEMQHASDETKRLYTSASRHELSELFNFSHTDVGTSPLFRYNLVPFELKDWKIALAELFRYINGTDCWSTIYLENHDQPRSITRFGDDSPKNRVISGKLLSVLLSALTGTLYVYQGQELGQINFKNWPVEKYEDVEIRNNYNAIKEEHGENSEEMKKFLEAIALISRDHARTPMQWSREEPNAGFSGPSAKPWFYLNDSFREGINVEDEIKDPNSVLNFWKEALKFRKAHKDITVYGYDFEFIDLDNKKLFSFTKKYNNKTLFAALNFSSDATDFKIPNDDSSFKLEFGNYPKKEVDASSRTLKPWEGRIYISE
modifications: His tag
Turning to B1, the t1/2 stood at 26.1 ± 1.7 min in series [1] (37 °C) and 17.6 ± 1.7 min in series [1] (40 °C). Besides, the Tm (in general, the temperature at the midpoint of the melting transition) stood at 55.5 ± 0.6 °C in series [2] (pH 6, DSF); 46.6 ± 0.7 °C in series [2] (pH 7, DSF); 41.6 ± 0.2 °C in series [2] (pH 8, DSF). Also, the “decrease of Tm on increase by one pH unit (pH 8)” value in series [2] is 5 °C.

B2: Ima2p: isomaltase from S. cerevisiae encoded by IMA2/YOL157C, His-tagged, purified (protein, UniProt Q08295 1-589, looked up)
Oligo-1,6-glucosidase IMA2: MTISSAHPETEPKWWKEATIYQIYPASFKDSNNDGWGDMKGIASKLEYIKELGADAIWISPFYDSPQDDMGYDIANYEKVWPTYGTNEDCFALIEKTHKLGMKFITDLVINHCSSEHEWFKESRSSKTNPKRDWFFWRPPKGYDAEGKPIPPNNWRSYFGGSAWTFDEKTQEFYLRLFCSTQPDLNWENEDCRKAIYESAVGYWLDHGVDGFRIDVGSLYSKVAGLPDAPVIDENSKWQPSDPFTMNGPRIHEFHQEMNKFIRNRVKDGREIMTVGEMQHATDETKRLYTSASRHELSELFNFSHTDVGTSPKFRQNLIPYELKDWKVALAELFRYVNGTDCWSTIYLENHDQPRSITRFGDDSPKNRVISGKLLSVLLVSLSGTLYVYQGQELGEINFKNWPIEKYEDVEVRNNYDAIKEEHGENSKEMKRFLEAIALISRDHARTPMQWSREEPNAGFSGPNAKPWFYLNESFREGINAEDESKDPNSVLNFWKEALRFRKAHKDITVYGYDFEFIDLDNKKLFSFTKKYDNKTLFAALNFSSDSIDFTIPNNSSSFKLEFGNYPRSEVDASSRTLKPWEGRIYISE
modifications: His tag
On to B2, for which the t1/2 in series [1] (37 °C) was 27.4 ± 1.6 min; in series [1] (40 °C) it was 18.5 ± 1.6 min; in series [1] (42 °C), 11.2 ± 0.7 min. Also, the Tm worked out at 55.1 ± 0.2 °C in series [2] (pH 6, DSF); 46.2 ± 0.8 °C in series [2] (pH 7, DSF); 33.2 ± 0.6 °C in series [2] (pH 8, DSF). For the same molecule, the “decrease of Tm on increase by one pH unit (pH 8)” value in series [2] came out at 13 °C.

B3: Ima3p_L240P: Ima3p variant with L240P mutation (protein, UniProt P0CW40 1-589, looked up, variant L240P)
Oligo-1,6-glucosidase IMA3: MTISSAHPETEPKWWKEATIYQIYPASFKDSNNDGWGDMKGIASKLEYIKELGTDAIWISPFYDSPQDDMGYDIANYEKVWPTYGTNEDCFALIEKTHKLGMKFITDLVINHCSSEHEWFKESRSSKTNPKRDWFFWRPPKGYDAEGKPIPPNNWRSYFGGSAWTFDEKTQEFYLRLFCSTQPDLNWENEDCRKAIYESAVGYWLDHGVDGFRIDVGSLYSKVAGLPDAPVIDENSKWQPSDPFTMNGPRIHEFHQEMNKFIRNRVKDGREIMTVGEMRHATDETKRLYTSASRHELSELFNFSHTDVGTSPKFRQNLIPYELKDWKVALAELFRYVNGTDCWSTIYLENHDQPRSITRFGDDSPKNRVISGKLLSVLLVSLSGTLYVYQGQELGEINFKNWPIEKYEDVEVRNNYDAIKEEHGENSKEMKRFLEAIALISRDHARTPMQWSREEPNAGFSGPNAKPWFYLNESFREGINAEDESKDPNSVLNFWKEALRFRKAHKDITVYGYDFEFIDLDNKKLFSFTKKYDNKTLFAALNFSSDSIDFTIPNNSSSFKLEFGNYPRSEVDASSRTLKPWEGRIYISE
Turning to B3, the t1/2 in series [1] (37 °C) was 26.5 ± 2.2 min; in series [1] (40 °C), 16.2 ± 1.8 min; in series [1] (42 °C) it was 8.5 ± 1.3 min. Also, the “increase of Tm relative to Ima3p” value in series [2] (pH 7) is 1 °C. Further, the midpoint of thermal melting (Tm) in series [2] (pH 7, DSF) is 39.7 °C and 39.7 ± 0.4 °C.
